According to patent US8778959B2, “AZA-bridged ring-fused indoles and indolines” (AbbVie Inc., priority 2009, dated 2014):

System: SK-N-SH human neuroblastoma cells
Experiment: Serum Deprivation/JC-1 Mitochondrial Membrane Potential (MMP) Assay
Assay type: cell-based
Conditions: for Emax: percent maximal intensity in JC-1 ratio normalized to peak value for 10 μM dimebolin, read-out: JC-1 max %; for EC50: serum deprivation ~18 hours, JC-1 ratio normalized to peak value for 10 μM dimebolin, single curve fit to mean of n=2-3
Experimental: SK-N-SH human neuroblastoma cells obtained from American Type Culture Collection (Rockville, Md.) were maintained in the log phase of growth in Minimal Essential Media (MEM), 10% heat inactivated fetal calf serum and 100 units/mL antibiotic-antimycotic (AA). Cells were cultured and maintained in a humidified incubator at 37° C. under 5% CO2 and 95% air. Cells were trypsinized (0.25%) and subcultured every 3 days and used from 15-18 passages. All cell culture supplies were obtained from Invitrogen (Carlsbad, Calif.).
SK-N-SH cells were plated 2-3 days in advance at a concentration of 50,000 cells/well onto collagen coated black-walled 96 well plates (Becton-Dickinson, Bedford, Mass.) in a total volume of 200 μL. On day of experimental treatment, the media containing serum was aspirated from each well and rinsed once with MEM/1% AA without serum. The cells then were incubated overnight in 100 μL of MEM/1% AA (no serum) with and without dimebolin or novel chemical entities overnight for ˜18 hours. The following day, JC-1 dye (5,5′,6,6′-tetrachloro-1,1′,3,3′-tetraethylbenzimidazolcarbocyanide) was diluted 1:10 into MEM media according to the JC-1 Mitochondrial Membrane Potential Assay Kit: (Cayman Chemical Company, Ann Arbor, Mich.) and then 10 μL of the JC-1 dye solution was added to each well. The plates were centrifuged for 5 minutes at 400×g at room temperature followed by 35 minute incubation at 37° C. The plates were washed twice with 200 μL of provided Assay Buffer followed an addition of 100 μL of Assay Buffer to each well. The plates were read with an excitation and emission of 560 nm and 595 nM for red fluorescence and with an excitation and emission of […] and 535 nM for green fluorescence to determine the final JC-1 value taking the red to green fluorescence ratio. This assay is based on change in mitochondrial membrane potential (MMP) using this lipophilic cationic dye, JC-1, by monitoring the changes in the ratio of red to green fluorescence as the MMP depolarizes. This change in MMP reflects the health of the cell with healthy, viable cells have a high JC-1 ratio and high MMP whereas apoptotic, unhealthy cells have a low JC-1 ratio or low MMP.
For the ability of compounds to reverse the stress due to serum deprivation and increase the JC-1 ratio, the percent maximal intensity in JC-1 ratio was normalized to that induced by the peak value for 10 μM dimebolin and plotted against the compound concentration to calculate EC50 values and to control for plate-to-plate variability. Concentration-response data were analyzed using GraphPad Prism (San Diego, Calif.); the EC50 values were derived from a single curve fit to the mean data of n=2-3, in duplicates.
All compounds were dissolved in dimethyl sulfoxide at 10 mM stock solutions and tested at a concentration that the dimethyl sulfoxide levels never exceeded 1%.

| SMILES | Emax (Homo sapiens, SK-N-SH, 18 h) [%] | EC50 (Homo sapiens, SK-N-SH, 18 h) [µM] | EC50 [µM] |
| --- | --- | --- | --- |
| Cc1ccc(/C=C/c2cccc3c4c([nH]c23)C[C@H]2CC[C@@H]4N2)cn1 (single isomer, unassigned) [Example 25] | 173 | 6.25 | 5.99 |
| CN1[C@@H]2CC[C@H]1c1c([nH]c3c(OCc4ccccc4)cccc13)C2 (stereo in doubt) [Example 5, (7R*,10S*)-4-(benzyloxy)-11-methyl-5,6,7,8,9,10-hexahydro-7,10-epiminocyclohepta[b]indole] | 24 | > 30 |  |
| CN1[C@H]2CC[C@@H]1c1c([nH]c3c(OCc4ccccc4)cccc13)C2 (stereo in doubt) [Example 6, (7S*,10R*)-4-(benzyloxy)-11-methyl-5,6,7,8,9,10-hexahydro-7,10-epiminocyclohepta[b]indole] | 55 | 4.59 |  |
| CN1[C@@H]2CCC[C@H]1c1c([nH]c3c(OCc4ccccc4)cccc13)C2 (stereo in doubt) [Example 7, (−)-(7R*,11S*)-4-(benzyloxy)-12-methyl-6,7,8,9,10,11-hexahydro-5H-7,11-epiminocycloocta[b]indole] | 120 | 5.41 |  |
| CN1[C@H]2CCC[C@@H]1c1c([nH]c3c(OCc4ccccc4)cccc13)C2 (stereo in doubt) [Example 8, (+)-(7S*,11R*)-4-(benzyloxy)-12-methyl-6,7,8,9,10,11-hexahydro-5H-7,11-epiminocycloocta[b]indole] | 107 | 8.52 |  |
| c1ccc(COc2cccc3c4c([nH]c23)C[C@@H]2CCC[C@H]4N2)cc1 (stereo in doubt) [Example 10, (7S*,11R*)-4-(benzyloxy)-6,7,8,9,10,11-hexahydro-5H-7,11-epiminocycloocta[b]indole] | 128 | 4.81 |  |
| Cc1ccc(/C=C/c2cccc3c4c([nH]c23)C[C@@H]2CC[C@H]4N2C)cn1 (stereo in doubt) [Example 14, (+)-(7S*,10R*)-11-methyl-4-[(E)-2-(6-methylpyridin-3-yl)vinyl]-5,6,7,8,9,10-hexahydro-7,10-epiminocyclohepta[b]indole] | 162 | 4.34 |  |
| Cc1ccc(/C=C/c2cccc3c4c([nH]c23)C[C@H]2CC[C@@H]4N2C)cn1 (stereo in doubt) [Example 15, (−)-(7R*,10S*)-11-methyl-4-[(E)-2-(6-methylpyridin-3-yl)vinyl]-5,6,7,8,9,10-hexahydro-7,10-epiminocyclohepta[b]indole] | 160 | 3.04 |  |
| Cc1ccc(C#Cc2cccc3c4c([nH]c23)C[C@@H]2CC[C@H]4N2C)cn1 (stereo in doubt) [Example 16, (+)-(7S*,10R*)-11-methyl-4-[(6-methylpyridin-3-yl)ethynyl]-5,6,7,8,9,10-hexahydro-7,10-epiminocyclohepta[b]indole] | 193 | 5.11 |  |
| Cc1ccc(C#Cc2cccc3c4c([nH]c23)C[C@H]2CC[C@@H]4N2C)cn1 (stereo in doubt) [Example 17, (−)-(7R*,10S*)-11-methyl-4-[(6-methylpyridin-3-yl)ethynyl]-5,6,7,8,9,10-hexahydro-7,10-epiminocyclohepta[b]indole] | 182 | 3.87 |  |
| Cc1ccc(CCc2cccc3c4c([nH]c23)CC2CCC4N2C)cn1 (stereo not drawn) [Example 2, 11-methyl-4-[2-(6-methylpyridin-3-yl)ethyl]-5,6,7,8,9,10-hexahydro-7,10-epiminocyclohepta[b]indole] | 173 | 5.25 |  |
| Cc1ccc(C#Cc2cccc3c4c([nH]c23)CC2CCC4N2C)cn1 (stereo not drawn) [Example 3, 11-methyl-4-[(6-methylpyridin-3-yl)ethynyl]-5,6,7,8,9,10-hexahydro-7,10-epiminocyclohepta[b]indole] | 244 | 6.18 |  |
| Cc1ccc(/C=C/c2ccc3[nH]c4c(c3c2)C2CCC(C4)N2C)cn1 (stereo not drawn) [Example 4, 11-methyl-2-[(E)-2-(6-methylpyridin-3-yl)vinyl]-5,6,7,8,9,10-hexahydro-7,10-epiminocyclohepta[b]indole] | 239 | 3.62 |  |
| CN1C2CCC1c1c([nH]c3c(-c4ccc(Cl)cc4)cccc13)C2 (stereo not drawn) [Example 11, 4-(4-chlorophenyl)-11-methyl-5,6,7,8,9,10-hexahydro-7,10-epiminocyclohepta[b]indole] | 74 | 8.03 |  |
| Cc1ccc(/C=C/c2cc(F)cc3c4c([nH]c23)CC2CCC4N2C)cn1 (stereo not drawn) [Example 12, 2-fluoro-11-methyl-4-[(E)-2-(6-methylpyridin-3-yl)vinyl]-5,6,7,8,9,10-hexahydro-7,10-epiminocyclohepta[b]indole] | 200 | 7.83 |  |
| Cc1ccc(/C=C/c2cccc3c4c([nH]c23)CC2CCC4N2)cn1 (stereo not drawn) [Example 13, 4-[(E)-2-(6-methylpyridin-3-yl)vinyl]-5,6,7,8,9,10-hexahydro-7,10-epiminocyclohepta[b]indole] | 164 | 4.62 |  |
| CC(=O)N1C2CCC1c1c([nH]c3c(/C=C/c4ccc(C)nc4)cccc13)C2 (stereo not drawn) [Example 18, 11-acetyl-4-[(E)-2-(6-methylpyridin-3-yl)vinyl]-5,6,7,8,9,10-hexahydro-7,10-epiminocyclohepta[b]indole] | 146 | 10.6 |  |
| COC(=O)N1C2CCC1c1c([nH]c3c(/C=C/c4ccc(C)nc4)cccc13)C2 (stereo not drawn) [Example 19, methyl 4-[(E)-2-(6-methylpyridin-3-yl)vinyl]-5,6,7,8,9,10-hexahydro-7,10-epiminocyclohepta[b]indole-11-carboxylate] | 178 | 5.37 |  |
| COC(=O)N1C2CCC1c1c([nH]c3c(-c4ccc5ccncc5c4)cccc13)C2 (stereo not drawn) [Example 20, methyl 4-isoquinolin-7-yl-5,6,7,8,9,10-hexahydro-7,10-epiminocyclohepta[b]indole-11-carboxylate] | 292 | 9.94 |  |
| COC(=O)N1C2CCC1c1c([nH]c3c(-c4ccc5ncccc5c4)cccc13)C2 (stereo not drawn) [Example 22, methyl 4-quinolin-6-yl-5,6,7,8,9,10-hexahydro-7,10-epiminocyclohepta[b]indole-11-carboxylate] | 204 | 6.44 |  |
| CC(=O)N1C2CCC1c1c([nH]c3c(-c4ccc5ncccc5c4)cccc13)C2 (stereo not drawn) [Example 23, 11-acetyl-4-quinolin-6-yl-5,6,7,8,9,10-hexahydro-7,10-epiminocyclohepta[b]indole] | 209 | 6.11 |  |
| Cc1ccc(/C=C/c2cccc3c4c(n(C)c23)CC2CCC4N2)cn1 (stereo not drawn) [Example 24, 5-methyl-4-[(E)-2-(6-methylpyridin-3-yl)vinyl]-5,6,7,8,9,10-hexahydro-7,10-epiminocyclohepta[b]indole] | 217 | 3.85 |  |
| Clc1ccc(-c2cccc3c4c([nH]c23)CC2CCC4N2)cn1 (stereo not drawn) [Example 27, 4-(6-chloropyridin-3-yl)-5,6,7,8,9,10-hexahydro-7,10-epiminocyclohepta[b]indole] | 104 | 10.2 |  |
| Clc1ccc(-c2ccc(-c3cccc4c5c([nH]c34)CC3CCC5N3)cn2)cn1 (stereo not drawn) [Example 28, 4-(6′-chloro-2,3′-bipyridin-5-yl)-5,6,7,8,9,10-hexahydro-7,10-epiminocyclohepta[b]indole] | 118 | 5.5 |  |
| CC(=O)N1C2CCC1c1c([nH]c3c(-c4ccc(Cl)nc4)cccc13)C2 (stereo not drawn) [Example 29, 1-[4-(6-chloropyridin-3-yl)-5,6,7,8,9,10-hexahydro-7,10-epiminocyclohepta[b]indol-11-yl]ethanone] | 114 | 5.31 |  |
| Cc1ccc(/C=C/c2cccc3c4c([nH]c23)CC2CNC4C2)cn1 (stereo not drawn) [Example 30, 7-[(E)-2-(6-methylpyridin-3-yl)vinyl]-1,2,3,4,5,6-hexahydro-1,4-methanoazepino[4,3-b]indole] | 118 | 5.59 |  |
| c1cc(-c2ccncc2)c2[nH]c3c(c2c1)C1CCC(C3)N1 (stereo not drawn) [Example 31, 4-(pyridin-4-yl)-5,6,7,8,9,10-hexahydro-7,10-epiminocyclohepta[b]indole] | 22.3 | > 31.6 |  |
| c1ccc2ncc(-c3cccc4c5c([nH]c34)CC3CCC5N3)cc2c1 (stereo not drawn) [Example 32, 4-(quinolin-3-yl)-5,6,7,8,9,10-hexahydro-7,10-epiminocyclohepta[b]indole] | 174 | 2.58 |  |
